# In BindingDB's records for doi:10.1021/jm00085a017 (Institute of Research, 1992):
# Assay: Inhibition of the release of Alpha-amylase from rat pancreatic acinar cells.
row,Structure (SMILES),IC50 [nM]
1,CCN(CC)CCCCCOC(=O)C(C)(c1ccccc1)C1CCCCC1 (centres undefined),2700
2,CN(C)CCCOC(=O)C(C)(c1ccccc1)C1CCCCC1 (centres undefined),10
3,CCN(CC)CCCOC(=O)C(C)(c1ccccc1)C1CCCCC1 (centres undefined),21
4,CCN(CC)CCOC(=O)C(C)(c1ccccc1)C1CCCCC1 (centres undefined),52
